Source: patent publication US5780434A, “Composition for oral administration of peptides” (Ferring B.V., priority 1993, dated 1998)

Experiments:
[1] = in the presence of aprotinin, rat; cited from earlier work
[2] = human, in vivo
Experimental: Experiments with healthy volunteers. After having fasted for 8 hours six healthy male volunteers were intubated (cf. example 1) with quadruple lumen flexible PVC tubes. The open end of the tube was positioned in the duodenum close to the pylorus; correct positioning was verified fluoroscopically. DDAVP acetate (0.4 mg in 2 ml 0.9% aqueous sodium chloride) was applied at the start and the tube was rinsed with 2 ml 0.9% aqueous sodium chloride. Perfusion with aprotinin (ANTAGOSAN™, Hoechst, Germany; aqueous solution, 10,000 kallikrein inactivator units/ml) started immediately after application of DDAVP and continued for 4 h at a rate of 5 ml/min. A standard breakfast was given 5-10 min after application of DDAVP, and a standardized meal 4 h later. From 2 h after start onwards the volunteers were given 100 ml/h water orally. Each volunteer participated in three sessions.
Bioavailability was determined for each subject in a separate session by intravenous bolus injection of DDAVP (4 μg); blood samples were drawn before and up to 8 h after drug application and analyzed for DDAVP as described above.

[3] = pH 6.5
Experimental: (§1) Human gastro-intestinal juice was obtained from healthy male volunteers who had been fasting for 8 h. A tube was introduced intranasally after local anaesthesia with xylocaine, and gastric juice was collected. Thereafter one standardized meal was given 1 h before sampling of duodenal and distal jejunum juice and another the next morning before the collection of distal ileal juice. After centrifugation the gastric and intestinal juices were frozen in aliquots of 1 ml and stored at -20° C.
(§2) The peptide or peptide analog (10 μl of 10 mM peptide in 0.9% aqueous NaCl) was added to 190 μl of undiluted juice at 37° C. Aliquots of 25 μl were withdrawn at intervals and mixed with 100 μl acetone to stop the reaction. After centrifugation for 10 min at 10,000 g, 10 μl of the supernatant was analyzed by reversed phase HPLC. The effects of increasing amounts of aprotinin were examined under the above conditions in intestinal juice from the ileum.
(§3) Analysis was carried out in a Varian 5000 HPLC analyzer equipped with a UV-detector (220 nm). Column Bondapak TM C18 (3.9×300 mm), eluant MeOH/0.025M NH4 Ac (isocratic conditions), flow rate 1 ml/min.

[4] = Degradation of peptide in human gastro-intestinal juice (HPLC); conditions: intestinal juice from the ileum, pH 6.5, increasing amounts of aprotinin
Experimental: as §1, §2, §3

In the case of “(1-deamino-4-valine)-8-D-arginine-vasopressin”, the “Urine retention after gastric administration of an aqueous solution” value [1] is listed as “moderately enhanced”.
In the case of NC(=O)CC[C@@H]1NC(=O)[C@H](Cc2ccccc2)NC(=O)[C@H](Cc2ccc(O)cc2)NC(=O)CCSSC[C@@H](C(=O)N2CCC[C@H]2C(=O)N[C@H](CCCN=C(N)N)C(=O)NCC(N)=O)NC(=O)[C@H](CC(N)=O)NC1=O [DDAVP, desmopressin], the “Increase of DDAVP absorption in presence of aprotinin” value [2] is reported as “about five-fold”, the “DDAVP absorption (bioavailability)” value ([2]; male, 0.4 mg) is reported as “about 0.1 % by weight” and the “DDAVP degraded to (after 35 min)” value [3] is reported as “about 50%”.
For aprotinin, the “Inhibition of DDAVP degradation by aprotinin” value [4] was “concentration-dependent inhibition”.
